Columns and labels:
[1] = release of carvacrol in air by weight loss; assay type: physicochemical; conditions: at 100 days
Method: The amount of carvacrol, i.e. the hydrophobic material in the composition, released in air was calculated by weight loss and is illustrated in FIG. 8C. The amount of carvacrol released in water was monitored by UV-vis scanning spectrophotometer (Shimadzu 1700), wherein

[2] = cited from earlier work

## Cc1ccc(C(C)C)cc1O [carvacrol]
[1]
  reduction of the original mass: approximately 40%
[2]
  saturation concentration in water: about 3 mM
